One assay deals with D54-MG. In words: Chemotherapeutic agent cytotoxicity, CCK-8 assay. The class given is cell-based, Human. The settings on record: two to five days treatment. Here is the method:
(§1) A tissue culture method was optimized to test the effects of various chemotherapeutic agents on multiple cancer cell lines (see Table 1). Cells were plated on 96-well microtiter tissue culture plates at a density of approximately 1000-2000 cells per well, depending on the specific cell line. Cells were allowed to adhere twenty-four hours in a 37° C., humidified cell culture incubator supplied with five percent carbon dioxide. In order to achieve a dose-response curve for each drug in each cell line, cells were treated with decreasing concentrations of a specific cytotoxic compound for two to five days. Following treatment, the cytotoxic effect of the drug was quantified using the Cell Counting Kit-8 (CCK-8) (Dojindo Inc.) according to the manufacturer's instructions. In brief, following the treatment period with the cytotoxic drug, cells were incubated with CCK-8 reagent and incubated at 37° C. for one to four hours, depending on the specific cell type. After incubation, plates were read on a microplate reader at a wavelength of 490 nm. The IC50 of each drug was calculated from a X-Y scatter plot of the negative log concentration of drug versus mean optical density (Table 2).
For orientation: Tetrazolium assays rely on reduction of a dye to a coloured formazan, in cell work by metabolically active cells.

For a further assay, the system named is SKMEL28. In words: Chemotherapeutic agent cytotoxicity, CCK-8 assay. The class given is cell-based, Human. The settings on record: two to five days treatment. Here is the method: as §1
The subject of a further assay is U251. In words: Chemotherapeutic agent cytotoxicity, CCK-8 assay. The class given is cell-based. The settings on record: Homo sapiens, U-251, 120 h, two to five days treatment. On the procedure:
as §1

The next assay concerns SKMEL31. Briefly: Chemotherapeutic agent cytotoxicity, CCK-8 assay. The class given is cell-based. The following applies: Homo sapiens, 120 h, two to five days treatment. On the procedure:
as §1

In a further assay the test system is PC-3. In words: Chemotherapeutic agent cytotoxicity, CCK-8 assay. The class given is cell-based. The settings on record: Homo sapiens, 120 h, two to five days treatment. Here is the method: as §1
Another assay relates to U251 glioma flank tumors. In words: Temodar plus chlorotoxin in glioma flank tumor model. The following applies: i.p., temodar 13.2 mg/kg, chlorotoxin 0.080 mg/kg. The class given is in vivo, Nude mice. On the procedure: The purpose of this study was to determine whether hydroxyurea or temodar combined with chlorotoxin were sufficient to inhibit tumor growth as indicated from in vitro studies with glioma cell lines. […] Combination treatment with chlorotoxin with hydroxyurea or temodar in mice with glioma flank tumors was compared to the treatment group of hydroxyurea or temodar alone and saline alone. Hydroxyurea and temodar dosage was based on the lowest dosage (10 mg/kg body weight) used in previous studies to determine clearance from the body in the treatment of sickle cell disease paradigm in nude mice (Iyamu et al. (2001) Chemotherapy 47, 270-278). […]
Mice with established flank tumors were each treated with 0.100 ml injection (i.p) of sterilized solutions consisting of either of saline, saline and hydroxyurea or temodar (13.2 mg/kg body weight), or saline, hydroxyurea or temodar (13.2 mg/kg) and chlorotoxin (0.080 mg/kg body weight). Tumor volume was calculated based on the measurements with the same set of calipers on the indicated days by determining the length×width×height of the tumor of non-anesthetized mice. […] Statistical significance was determined according to a one-way ANOVA test.

Another assay deals with U251 and PC3 cells. The following applies: alanine-substituted 9-mers versus native 9-mer.
For a further assay, the system named is crayfish. Briefly: Crayfish paralysis assay. The class given is in vivo. The following applies: 10-mer peptides.
Assay [1] deals with PC3 human prostate cancer cells. The class given is binding. The text has this:
In order to compare binding of the short scorpion toxins, the regions homologous to peptide 21 of small toxin and probable toxin LQH-8/6 were synthesized and biotinylated for analysis in the chlorotoxin binding assay (see Table 8 for amino acid sequences of the peptides).

The next assay deals with D54MG Glioblastoma cells. The settings on record: for ^3H-Thymidine uptake ± SD (CPM): 24 hours incubation. On the procedure: The purpose of this experiment was to determine if the proliferation D54MG Glioblastoma cells, as measured by ^3H-thymidine uptake, is effected by Peptide 21, a segment of the full chlorotoxin sequence. The sequence of peptide 21 and its relation to chlorotoxin is shown in the sequence below:
D54MG cells were plated in a 24 well plate at 100,000 cells/ml/well using five rows of four wells for each concentration. The cells were allowed to adhere in normal media for twenty-four hours at 37° C. and 5% carbon dioxide. TM-701 was diluted to a […] stock solution and added to each row at the concentrations of 0, 20, 80, 160 and 320 nM.
The cells and peptide 21 were allowed to incubate for 24 hours at 37° C. and 5% carbon dioxide. After twenty-four hours, the cells were rinsed two times with warm PBS. Normal media was added back to the cells at 1 ml/well. One μCi of ^3H-thymidine was added to each well (1 μl of 1 mCi/ml ^3H-thymidine to each well). The plate was incubated for two hours at 37° C. The media and thymidine were removed and the wells were rinsed with ice-cold phosphate-buffered saline three times. To each well was added 1 ml of 0.3 N NaOH. The plate was incubated in the 37° C. incubator for thirty minutes. Each well of 0.3 N NaOH was pipetted up and down three to four times and removed from the plate and the solution was placed in scintillation vials for counting. Scintillation fluid at four times the amount of sample was added to the vials (4 ml). Each vial was counted on the scintillation counter for one minute.

Where [2] appears, read: Homo sapiens, D54MG, 120 h, read-out: IC50.
Setting [3] is: Homo sapiens, SK-MEL-28, 120 h, read-out: IC50.
The mark [4] stands for this setting: PC3 cells, biotinylated peptides.

Experimental findings from patent US20060088899A1, “Combination chemotherapy with chlorotoxin” (priority 2002, published 2006) are described below.

As a reminder, the IC50 is the midpoint of a concentration-inhibition curve. For orientation: pIC50 means the IC50 on a negative log10 scale, so that one unit is a factor of ten.

pIC50: −log10 of the molar value. Like-named read-outs stand apart in the source and are kept apart here. Ends that are not written are not given here. * marks the point of attachment. Biotin = O=C1N[C@H]2[C@H](CS[C@H]2CCCCC(=O)*)N1

For `O=c1[nH]cc(F)c(=O)[nH]1` [5-Fluorouracil, fluorouracil], the concentration for half-maximal inhibition (IC50) with D54-MG (setting [2]) was 1.5 µg/mL.
In the case of `N.N.[Cl][Pt][Cl]` [Cisplatin, cis-diamminedichloroplatinum], the IC50 was 8 µg/mL with SKMEL28 and 10 µg/mL with D54-MG.
Take `COc1cccc2c1C(=O)c1c(O)c3c(c(O)c1C2=O)C[C@@](O)(C(=O)CO)C[C@@H]3O[C@H]1C[C@H](N)[C@H](O)[C@H](C)O1` [Doxorubicin, hydroxyl daunorubicin]: the IC50 with SKMEL28 (setting [3]) was determined as 0.04 µg/mL; in the assay with D54-MG (setting [2]) it was 0.06 µg/mL; in the assay with U251 it was 0.03 µg/mL; with SKMEL31, 0.035 µg/mL.
The compound `NC(=O)NO` [Hydroxyurea, hyroxycarbamide] showed a pIC50 with PC-3 of 1.46.
With `CC(=O)O[C@H]1C(=O)[C@@]2(C)[C@H]([C@H](OC(=O)c3ccccc3)[C@]3(O)C[C@H](OC(=O)[C@H](O)[C@@H](NC(=O)c4ccccc4)c4ccccc4)C(C)=C1C3(C)C)[C@]1(OC(C)=O)CO[C@@H]1C[C@@H]2O` [Paclitaxel, paclitaxel], the figures for the pIC50 with D54-MG (setting [2]), in the assay with U251 and in the assay on SKMEL31 were 7.98, 8.10 and 7.60, respectively.
Turning to `Cn1nnc2c(C(N)=O)ncn2c1=O` [Temodar, temozomide], the pIC50 with SKMEL28 (setting [3]) was 4.52; in the assay with D54-MG (setting [2]) it was 3.92; in the assay with U251 it was 3.82; with SKMEL31 it was 3.82. The “growth of the xenografted tumor (percent change of tumor volume)” value with U251 glioma flank tumors was “little effect”.
As for Biotin-TDHAMARKS [Peptide 21a-A4], in the assay on U251 and PC3 cells, the “binding of the peptide to cells” value is given as “may be equal to or greater than chlorotoxin itself”.
In the case of Biotin-TTDHQMARKS [peptide 21], the paralysis of crayfish result with crayfish is listed as “effective”. The binding in [1] is on record as 232.50 % of background levels. In the assay with D54MG Glioblastoma cells (0 to 320 nM), the “uptake of ^3H-thymidine, dose dependence” value is recorded as “decreases in a does-dependent manner”. For the same compound, the “^3H-Thymidine uptake ± SD (CPM)” value came out at 7795 ± 634 CPM with D54MG Glioblastoma cells (20 nM), 7412 ± 630 CPM in the assay on D54MG Glioblastoma cells (80 nM), 6983 ± 329 CPM in the assay with D54MG Glioblastoma cells (160 nM) and 5782 ± 886 CPM in the assay on D54MG Glioblastoma cells (320 nM).
Regarding “TTDPQMSKK [Peptide 21ST, biotinylated region of small toxin homologous to peptide 21]”, the binding in assay [1] (setting [4]) is 225.26 % of background levels.
Still for that read-out and setting: the same measure for “TTDQQMTKK [Peptide 21LQ, biotinylated region of probable toxin LQH-8/6 homologous to peptide 21]”: 242.32 % of background levels; for “negative peptide (GKCYGPQCLC; Chlorotoxin; listed as Leiurus quinquestriatus)”: 110 % of background levels.
